For data set [1] the following is noted: several grams taken, patients; cited from earlier work.
Data set [2] is described as follows: Cleavage experiments in FaSSGF medium simulating the stomach, with or without pancreatin (Panzytrat). It counts as in vitro ADME. Particulars: in the presence or absence of pancreatin. The text has this: (§1) Esters tested: • 3-Acetylaceto-BHB ethyl ester • 3-Acetylaceto-BHB decyl ester • 3-Acetylaceto-BHB oleyl ester • 3-Acetylaceto-BHB cetyl ester • 3-Acetylaceto-BHB-margaryl ester • 3-Acetylaceto-BHB stearyl ester • 3-Acetylaceto-BHB behenyl ester • 3-Acetylaceto-BHB melissyl ester • 3-Acetylaceto-BHB palmitoyl ester • 3-Acetylaceto-BHB linoleyl ester For the cleavage experiments under near-body conditions two media are investigated: • FaSSGF, which simulates the stomach • FaSSIF, which simulates the intestinal tract Both media are from the company Biorelevant®, Ltd. in Great Britain. In addition, in some experiments porcine pancreas is added (Panzytrat® 40,000, Fa. Allergan).
(§2) Under FaSSIF conditions, a lower conversion using Panzytrat® takes place.

The nature of data set [3]: Cleavage experiments in FaSSIF medium simulating the intestinal tract, with or without pancreatin (Panzytrat). In kind it is in vitro ADME. The conditions noted are these: in the presence or absence of pancreatin.
Excerpt: as §1, §2

The subject of data set [4] is pancreatin (Panzytrat 40,000). As to the kind of experiment: Cleavage experiments with pancreatin in water, followed by acid number. It counts as in vitro ADME, porcine. Particulars: each ester in its pure form, 50° C. The protocol: 2 g of each of the 3-acetoacetate-BHB ethyl esters prepared as described above and the 3-acetoacetate-BHB fatty alcohol esters prepared as described above are dissolved in 50 g water and 0.5 g (1% by weight) pancreatin is added. The pancreatin is used in the form of the commercially available product Panzytrat® 40,000 from the Allergan company. The whole mixture is stirred on a hot plate at 50° C.; the course of the reaction is determined and monitored by continuously recording the acid number over time. […] This is confirmed by corresponding analytics. The experiment proves that both the 3-acetylaceto-BHB ethyl ester according to the invention and the functionalized derivatives (i. e. 3-acetylaceto-BHB fatty alcohol esters) are suitable physiological precursors for 3-hydroxybutyric acid for the corresponding keto body therapies. The experiments are repeated and verified using each ester in its pure form.

Regarding `CC(O)CC(=O)O` (stereo not shown) [3-hydroxybutyric acid], the duration of ketosis entry in data set [1] was “three to four”.
In the case of `CCOC(=O)CC(C)OC(=O)CC(C)=O` (stereo not shown) [3-acetylaceto-BHB ethyl ester, 3-acetylacetobutyric acid ethyl ester], in data set [2], the “cleavage in gastric medium” value is listed as “cleavage to 3-BHB in the free form”. In addition, the “cleavage in intestinal medium” value in data set [3] is on record as “cleavage to 3-BHB in the free form”. In data set [4], the cleavage by pancreatin entry is given as “cleaved by pancreatin”.

Source of the values: US12570599B2, “Process for preparing acyl-capped 3-hydroxycarboxylic acids and their salts and esters” (KetoLipix Therapeutics GmbH, priority 2019, dated 2026).
